These results are taken from patent publication US20230348369A1 (Cytokinetics, Inc., priority 2020, published 2023).

This experiment addresses human NAMPT (Homo sapiens, UniProt P43490). Description: Human recombinant enzyme assay (NMN fluorescence biochemical assay, activation of NAMPT). The procedure, abridged: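 NMN production is detected fluorometrically (Ex 355/Em 460 nm) 40 min after acetophenone, KOH and formic acid derivatization. Reactions ran 60 min at ambient temperature: 6 nM human NAMPT, nicotinamide 150 μM, PRPP 20 μM, ATP 2.5 mM, buffered at pH 7.2 with 50 mM HEPES plus DTT, CHAPS, NaCl and 100 mM MgCl2.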

Setting [1] is: Table A, human recombinant NAMPT, NMN formation, 60 min.
[2] abbreviates: Table A, human recombinant NAMPT, NMN formation, 60 min, read-out: EC50 Human.

Like-named read-outs stand apart in the source and are kept apart here.

Chain of human NAMPT (P43490 whole entry): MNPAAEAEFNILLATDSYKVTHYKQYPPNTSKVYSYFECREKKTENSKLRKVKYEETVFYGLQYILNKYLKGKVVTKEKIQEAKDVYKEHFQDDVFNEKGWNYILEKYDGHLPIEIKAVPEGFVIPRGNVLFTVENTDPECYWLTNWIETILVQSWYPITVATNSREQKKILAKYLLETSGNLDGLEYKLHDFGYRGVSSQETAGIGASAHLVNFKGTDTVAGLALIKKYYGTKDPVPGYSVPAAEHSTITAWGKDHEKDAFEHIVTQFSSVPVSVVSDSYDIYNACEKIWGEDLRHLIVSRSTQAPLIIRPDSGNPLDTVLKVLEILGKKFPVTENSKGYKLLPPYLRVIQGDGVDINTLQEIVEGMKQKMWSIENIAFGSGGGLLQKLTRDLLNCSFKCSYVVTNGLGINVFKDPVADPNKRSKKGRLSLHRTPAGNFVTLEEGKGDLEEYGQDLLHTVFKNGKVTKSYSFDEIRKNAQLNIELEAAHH

What is called EC50 is the concentration needed to bring the measured effect to its halfway point. As to `COc1ccc(CNC(=O)NC2CC3(C2)CN(C(=O)c2cccc(C(C)(C)C)c2)C3)cc1` [Compound 174, 1-(2-(3-(tert-butyl)benzoyl)-2-azaspiro[3.3]heptan-6-yl)-3-(4-methoxybenzyl)urea], the “AC1.4 Human” value under setting [1] worked out at 2.0 µM. Besides, the EC50 under setting [2] was found to be 29.5 µM. With `Cc1ccc(C(=O)N2CCC(CCCCNC(=O)NCc3ccc(Cl)cc3)CC2)cn1` [Compound 309, 1-(4-chlorobenzyl)-3-(4-(1-(6-methylnicotinoyl)piperidin-4-yl)butyl)urea], under setting [1], the “AC1.4 Human” value turned out to be 2.1 µM. For the same compound, the EC50 under setting [2] is 6.5 µM. For `COc1ccc(CNC(=O)NC2CC3(C2)CC(C(=O)NCC(C)(C)c2ccccc2F)C3)cc1` (centres unmarked) [Compound 55, N-(2-(2-fluorophenyl)-2-methylpropyl)-6-(3-(4-methoxybenzyl)ureido)spiro[3.3]heptane-2-carboxamide], in that order: 1.1 µM and 40.6 µM.

For the compound `CCc1cccc(C(=O)N2CC3(CC(NC(=O)NCc4ccc(OC)cc4)C3)C2)c1` [Compound 172, 1-(2-(3-ethylbenzoyl)-2-azaspiro[3.3]heptan-6-yl)-3-(4-methoxybenzyl)urea], the EC50 is 22.9 µM. Further, the “AC1.4 Human” value under setting [1] was 1.9 µM. Consider `O=C(NCCCCC1CCN(C(=O)C2CCOCC2)CC1)NCc1ccc(Cl)cc1` [Compound 300, 1-(4-chlorobenzyl)-3-(4-(1-(tetrahydro-2H-pyran-4-carbonyl)piperidin-4-yl)butyl)urea], for which the “AC1.4 Human” value under setting [1] came out at 1.4 µM. Besides, the EC50 under setting [2] is 6.5 µM. In the same order, the values of `COc1ccc(CNC(=O)NC2CC3(C2)CC(C(=O)NCC(C)(C)c2ccccc2OC)C3)cc1` (centres unmarked) [Compound 64, 6-(3-(4-methoxybenzyl)ureido)-N-(2-(2-methoxyphenyl)-2-methylpropyl)spiro[3.3]heptane-2-carboxamide] are 1.4 µM and 50.1 µM. With `COc1ccc(CNC(=O)NC2CC3(C2)CC(C(=O)NC2CCCc4cc(F)ccc42)C3)cc1` (stereo in doubt) [Compound 98, (S)-N-(6-fluoro-1,2,3,4-tetrahydronaphthalen-1-yl)-6-(3-(4-methoxybenzyl)ureido)spiro[3.3]heptane-2-carboxamide], the “AC1.4 Human” value under setting [1] came out at 3.0 µM. For the same compound, the EC50 under setting [2] came to 7 µM. For `Cc1ccc(CC2CC3(C2)CC(NC(=O)NCc2ccc(Cl)cc2)C3)cn1` (centres unmarked) [Compound 347, 1-(4-chlorobenzyl)-3-(6-((6-methylpyridin-3-yl)methyl)spiro[3.3]heptan-2-yl)urea], in that order: 2.2 µM and 2.4 µM. For `O=C(NCCCCC1CCN(C(=O)c2cccnc2)CC1)NCc1ccc(Cl)cc1` [Compound 289, 1-(4-chlorobenzyl)-3-(4-(1-nicotinoylpiperidin-4-yl)butyl)urea], in that order: 1.1 µM and 7.7 µM. Take `COc1ccc(CNC(=O)NC2CC3(C2)CN(C(=O)c2ccc(OC)cc2)C3)cc1` [Compound 155, 1-(2-(4-methoxybenzoyl)-2-azaspiro[3.3]heptan-6-yl)-3-(4-methoxybenzyl)urea]: the “AC1.4 Human” value under setting [1] turned out to be 2.7 µM. The EC50 under setting [2] amounted to 52.1 µM. Regarding `COc1ccc(CNC(=O)NC2CC3(C2)CC(C(=O)N2CCN(C(=O)c4ccccc4)CC2)C3)cc1` (centres unmarked) [Compound 62, 1-(6-(4-benzoylpiperazine-1-carbonyl)spiro[3.3]heptan-2-yl)-3-(4-methoxybenzyl)urea], under setting [1], the “AC1.4 Human” value amounted to 1.2 µM. Further, under setting [2], the EC50 was 23.6 µM. In the same order, the values of `Cc1ccc(NC(=O)CCCCCNC(=O)NCc2ccc(Cl)cc2)cn1` [Compound 278, 6-(3-(4-chlorobenzyl)ureido)-N-(6-methylpyridin-3-yl)hexanamide] are 1.8 µM and 7.1 µM. For the compound `CC(C)(C)OC(=O)NC1CC2(CC(NC(=O)NCc3ccc(C(N)=O)cc3)C2)C1` (centres unmarked) [Compound 2, tert-butyl (6-(3-(4-carbamoylbenzyl)ureido)spiro[3.3]heptan-2-yl)carbamate], the EC50 under setting [2] is 25.9 µM. Turning to `COC(=O)C1CC2(CC(NC(=O)NCc3ccc(OC)cc3)C2)C1` (centres unmarked) [Compound 35, Methyl 6-(3-(4-methoxybenzyl)ureido)spiro[3.3]heptane-2-carboxylate], the “AC1.4 Human” value under setting [1] was found to be 15.4 µM. Further, the EC50 under setting [2] is 40.2 µM. In the same order, the values of `Cc1ccccc1NC(=O)CCCCCNC(=O)NCc1ccc(Cl)cc1` [Compound 262, 6-(3-(4-chlorobenzyl)ureido)-N-(o-tolyl)hexanamide] are 0.6 µM and 4.9 µM.

In the case of `O=C(NCc1ccc(Cl)cc1)NC1CC2(C1)CC(NS(=O)(=O)c1cccnc1)C2` (centres unmarked) [Compound 213, N-(6-(3-(4-chlorobenzyl)ureido)spiro[3.3]heptan-2-yl)pyridine-3-sulfonamide], the “AC1.4 Human” value under setting [1] stood at 6.8 µM. Also, the EC50 under setting [2] worked out at 6.8 µM. Turning to `Cc1ccccc1C(=O)N1CCC(CCCCNC(=O)NCc2ccncc2)CC1` [Compound 323, 1-(4-(1-(2-methylbenzoyl)piperidin-4-yl)butyl)-3-(pyridin-4-ylmethyl)urea], the “AC1.4 Human” value under setting [1] turned out to be 0.2 µM. Further, the 50% effective concentration (EC50) under setting [2] came to 1.6 µM.

Turning to `COc1ccc(CNC(=O)NC2CC3(C2)CN(C(=O)c2cccc(N4CCCC4=O)c2)C3)cc1` [Compound 188, 1-(4-methoxybenzyl)-3-(2-(3-(2-oxopyrrolidin-1-yl)benzoyl)-2-azaspiro[3.3]heptan-6-yl)urea], under setting [1], the “AC1.4 Human” value came out at 0.9 µM. Moreover, the EC50 under setting [2] was 13.4 µM. For `O=C(NCc1ccc(Cl)cc1)N[C@H]1C[C@]2(CCN(c3ncccn3)C2)C1` [Compound 170, 1-(4-chlorobenzyl)-3-((2s,4r)-6-(pyrimidin-2-yl)-6-azaspiro[3.4]octan-2-yl)urea], in that order: 15.1 µM and 46.9 µM.

With `COc1ccc(CNC(=O)NC2CC3(C2)CC(C(=O)N2CCCC2c2ccccc2)C3)cc1` (centres unmarked) [Compound 44, 1-(4-methoxybenzyl)-3-(6-(2-phenylpyrrolidine-1-carbonyl)spiro[3.3]heptan-2-yl)urea], the “AC1.4 Human” value under setting [1] came to 10.1 µM. Besides, the EC50 under setting [2] stood at 36.5 µM. In the same order, the values of `COc1ccc(CNC(=O)NC2CC3(C2)CN(C(=O)C(C)(C)c2ccccc2)C3)cc1` [Compound 142, 1-(4-methoxybenzyl)-3-(2-(2-methyl-2-phenylpropanoyl)-2-azaspiro[3.3]heptan-6-yl)urea] are 1.8 µM and 33.3 µM.

`COc1ccc(CNC(=O)NC2CC3(C2)CN(C(=O)c2cccc(N4CCCC4)c2)C3)cc1` [Compound 179, 1-(4-methoxybenzyl)-3-(2-(3-(pyrrolidin-1-yl)benzoyl)-2-azaspiro[3.3]heptan-6-yl)urea]: the EC50 stood at 12.4 µM. The “AC1.4 Human” value under setting [1] came out at 0.8 µM. On to `COc1ccc(CNC(=O)NC2CC3(C2)CC(C(=O)NC2CCCc4ccccc42)C3)cc1` (stereo in doubt) [Compound 100, (R)-6-(3-(4-methoxybenzyl)ureido)-N-(1,2,3,4-tetrahydronaphthalen-1-yl)spiro[3.3]heptane-2-carboxamide], for which the “AC1.4 Human” value under setting [1] was 8.5 µM. In addition, under setting [2], the EC50 was 10.3 µM.

For the compound `O=C(NCc1ccc(Cl)cc1)NC1CC2(C1)CN(S(=O)(=O)c1cccc(Cl)c1)C2` [Compound 217, 1-(4-chlorobenzyl)-3-(2-((3-chlorophenyl)sulfonyl)-2-azaspiro[3.3]heptan-6-yl)urea], under setting [1], the “AC1.4 Human” value is 19.2 µM. The EC50 under setting [2] came out at 20.1 µM.
